In the experiment the test system is M. tuberculosis H37Rv growth inhibition. The experiment in a line: M. tuberculosis H37Rv growth inhibitors, H37Rv strain (AID 1626). The settings on record: for IC90: measured here: IC90 against H37Rv; for CC50: measured here: Vero cell cytotoxicity.

With `C1=C(CCNc2ncnc3c2[nH]c2ccccc23)CCCC1`, the IC50 is 1.52 µM, the concentration for an effect of 90% (IC90) was 1.72 µM and the half-maximal cytotoxic concentration (CC50) is 5.24 µM.
The like results for `OC(c1cc(-c2ccc(Cl)cc2)nc2ccccc12)C1CCCCN1` (stereo not given) were, in that order, 4.52 µM, 13.5 µM and 7.35 µM.
Take `COc1ccc(NC(=O)COc2ccc3c(c2)CCC3)cc1`: the IC50 is 16.4 µM and the IC90 is above 100 µM.
For the compound `COC(=O)c1cc(=O)n(-c2ccccc2)c(=Nc2ccccc2)s1`, the IC50 is 5.19 µM, the IC90 was 17.7 µM and the CC50 was determined as 27.6 µM.
The like results for `COc1ccc(-c2nnc(SCC(=O)OC3CCCCC3)o2)cc1OC` were, in that order, below 0.195 µM, 1.04 µM and above 40 µM.
The like results for `O=[N+]([O-])c1cc(O)c2ncccc2c1` were, in that order, 2.71 µM, 3.39 µM and 7.36 µM.
The like results for `CC(=O)OCCCNc1cc(Sc2nc3ccccc3s2)c2nonc2c1[N+](=O)[O-]` were, in that order, 7.74 µM, 10.1 µM and 16.3 µM.
Regarding `c1ccc(-c2nc(NCCCn3ccnc3)c3ccccc3n2)cc1`, the IC50 is 5.87 µM, the IC90 was 8.05 µM and the CC50 is above 40 µM.
On to `CCOC(=O)COc1ccc2c(=O)c(-c3ccccc3OC)coc2c1`, for which the IC50 is 1.06 µM and the IC90 came to 2.45 µM.
For `O=[N+]([O-])c1cc2cccnc2c2ncccc12`, the half-maximal inhibitory concentration (IC50) was 1.4 µM, the IC90 was 1.49 µM and the CC50 came to 33 µM.
As to `O=C(OCC(=O)N1CCCCC1)c1cc2ccccc2cc1O`, the concentration for half-maximal inhibition (IC50) is 1.62 µM and the IC90 stood at 10.6 µM.
Consider `Oc1cccc2ccc(/C=C/c3ccc(Br)s3)nc12`, for which the IC50 was 2.56 µM, the IC90 is above 100 µM and the CC50 worked out at 32.4 µM.
On to `CCCn1c(NC(=O)c2ccc(Br)cc2)nc2ccccc21`, for which the half-maximal inhibitory concentration (IC50) is 17.2 µM, the IC90 is above 100 µM and the CC50 was above 40 µM.
The like results for `CCCCc1c(C)c(C#N)c2[nH]c3ccccc3n2c1=O` were, in that order, 23.2 µM, above 100 µM and 22.9 µM.
The like results for `O=C(CSc1nc2ccccc2o1)Nc1nc(-c2ccccc2)c(-c2ccccc2)s1` were, in that order, 10.1 µM, above 100 µM and above 40 µM.
With `Cc1c2ccncc2c(C)c2c1[nH]c1ccccc12`, the concentration for half-maximal inhibition (IC50) was 0.465 µM, the 90% effect concentration (IC90) is 0.667 µM and the CC50 amounted to 0.793 µM.
Take `O=C(NCCN1CCOCC1)c1ccc([N+](=O)[O-])cc1[N+](=O)[O-]`: the half-maximal inhibitory concentration (IC50) was 2.11 µM and the IC90 worked out at 3.4 µM.
The like results for `CCOC(=O)c1ccc(NC(=O)CCOc2ccc(C)cc2)cc1` were, in that order, 20.9 µM and above 100 µM.
For `Nc1[nH]n2c(=O)c3c(nc2c1N=Nc1ccc(Cl)cc1)CCCC3`, the half-maximal inhibitory concentration (IC50) is 10.7 µM, the concentration for an effect of 90% (IC90) is 21.5 µM and the half-maximal cytotoxic concentration (CC50) was determined as 25.4 µM.
The like results for `CCCCc1ccc(C2C3=C(CC(C)(C)CC3=O)NC3=C2C(=O)c2ccccc23)cc1` (stereo not given) were, in that order, 3.09 µM, above 100 µM and above 40 µM.
The like results for `CCOC(=O)c1ccc(NC(=O)CCc2nc(-c3ccc(C)cc3)no2)cc1` were, in that order, 1.36 µM, 12.4 µM and above 40 µM.
The like results for `O=C(Oc1c(Cl)cc(Cl)c2cccnc12)c1ccco1` were, in that order, 1.28 µM, 1.78 µM and 10 µM.
In the case of `CCOC(=O)C1=C(c2ccccc2)N=c2s/c(=C\c3ccc(O)cc3)c(=O)n2C1c1cccs1` (stereo not given), the 50% inhibitory concentration (IC50) was 8.75 µM, the IC90 was above 100 µM and the 50% cytotoxic concentration (CC50) was above 40 µM.
The like results for `O=C(Nc1nnc(-c2ccc3c(c2)CCCC3)o1)c1ccc(Cl)cc1Cl` were, in that order, 0.625 µM, 0.962 µM and above 40 µM.
Consider `Cc1cccc(Nc2nnc(SCC(=O)Nc3cccnc3Cl)s2)c1`, for which the IC50 is 2.34 µM and the IC90 turned out to be 8.03 µM.
The like results for `Cc1ccc(C)c(-c2cc(C(=O)Nc3nccs3)c3ccccc3n2)c1` were, in that order, 8.18 µM and 11.3 µM.
In the case of `CC(C)COC(=O)c1ccc2c(c1O)C(=O)c1ccccc1C2=O`, the IC50 is 2.51 µM, the IC90 is 4.11 µM and the CC50 was 27.8 µM.
In the case of `COc1ccc(C2NCCc3c2[nH]c2ccccc32)cc1COc1ccc(F)cc1` (stereo not given), the 50% inhibitory concentration (IC50) was 3.11 µM, the IC90 worked out at 3.39 µM and the CC50 is 12.1 µM.
The like results for `O=c1[nH]c(=O)n(Cc2ccccc2Cl)c(O)c1/C=C1/C=CC=N1` were, in that order, below 0.391 µM, 3.23 µM and 27.2 µM.
The like results for `CN(C)CCCNc1cc(C(C)(C)C)nc2c(-c3ccc(Cl)cc3)cnn12` were, in that order, 0.874 µM, 1.37 µM and 9.25 µM.
The like results for `CC(=O)C1=C(C)NC(SCC(=O)c2ccc(Cl)c(Cl)c2)=C(C#N)C1c1ccco1` (stereo not given) were, in that order, 5.85 µM, 6.67 µM and above 40 µM.
For `NC1=NC[C@H](Cc2ccc(O)cc2)N1CCCCC1CCCCC1`, the 50% inhibitory concentration (IC50) was 5.33 µM and the IC90 was found to be 7.7 µM.
As to `Cc1ccc(Nc2c(-c3ccccn3)nc3ccc(C)cn23)cc1`, the IC50 is 1.43 µM, the IC90 was determined as 1.63 µM and the CC50 was found to be 1.54 µM.
As to `Cn1cnc(Sc2ncnc3nc[nH]c23)c1[N+](=O)[O-]`, the IC50 is 8.98 µM and the concentration for an effect of 90% (IC90) amounted to 16.1 µM.
The like results for `O=C1C2C3C=CC(C3)C2C(=O)N1c1ccc(-c2nc3ccccc3c(=O)o2)cc1` (stereo not given) were, in that order, 9.33 µM and 23.1 µM.
As for `CC(=O)Nc1nc2ccccc2n1Cc1ccccc1C`, the IC50 is 0.2 µM, the concentration for an effect of 90% (IC90) was found to be 81 µM and the 50% cytotoxic concentration (CC50) came out at 22.5 µM.
Consider `CCn1ccnc1CN(C)Cc1cn(-c2ccc(C)cc2)nc1-c1ccc(F)cc1`, for which the IC50 was 5.81 µM, the IC90 turned out to be 6.72 µM and the 50% cytotoxic concentration (CC50) is above 40 µM.
`Clc1ccc(-c2ccc(C=Nc3ccc(N4CCOCC4)cc3)o2)c(Cl)c1`: the 90% effect concentration (IC90) is above 100 µM.
As for `COc1cccc(CNc2cnc3ccccc3c2)c1O`, the half-maximal inhibitory concentration (IC50) was 28.6 µM and the IC90 was above 100 µM.
Regarding `Cc1cccc(N=C2NN=C(c3c(C)[nH]c4ccccc34)CS2)c1`, the IC50 is 10.4 µM, the IC90 came to 16.3 µM and the CC50 turned out to be 38.6 µM.
For `Cc1nc(SCc2ccc(F)cc2)c2oc3ccccc3c2n1`, the 50% inhibitory concentration (IC50) was below 0.195 µM and the concentration for an effect of 90% (IC90) is above 100 µM.
On to `O=C(C[n+]1cc(-c2ccccc2)n2c1CCC2)Nc1nc(-c2ccc(F)cc2)cs1`, for which the IC50 was 19.9 µM and the IC90 stood at 42.8 µM.
With `CCOC(=O)Nc1ccc(C(=O)Oc2ccccc2)c(O)c1`, the concentration for half-maximal inhibition (IC50) is below 0.195 µM, the IC90 is above 100 µM and the CC50 is above 40 µM.
The like results for `CCCCn1c(O)c(C(CC)=Nc2ccc(OCC)cc2)c(=O)[nH]c1=O` were, in that order, 7.89 µM, above 100 µM and above 40 µM.
For `CCOC(=O)N1CCN(C(=O)CSc2nnc(COc3ccccc3)o2)CC1`, the IC50 is 24.7 µM and the concentration for an effect of 90% (IC90) came to 40 µM.
The like results for `CCOC(=O)CSc1nc(-c2ccccc2)ns1` were, in that order, 5.59 µM and 8.55 µM.
The like results for `CCOc1ccc(NC(=O)c2ccccc2CO)cc1` were, in that order, 9.45 µM and above 100 µM.
Regarding `COc1cc(/C=C/C(=O)c2c(O)n(CCc3ccccc3)c(=O)[nH]c2=O)ccc1O`, the concentration for half-maximal inhibition (IC50) was 7.57 µM, the IC90 is 11.3 µM and the CC50 stood at 20.2 µM.
The like results for `CCCCCOc1ccc(Br)cc1CSC(=N)N` were, in that order, 9.43 µM, 12 µM and 14.8 µM.
Regarding `COc1cc(CNc2ccc3c(c2)CCC3)cc(OC)c1O`, the IC50 was 46.4 µM and the IC90 is above 100 µM.
Regarding `Cc1cccc(CN2C(=O)[C@@H]3Cc4c([nH]c5ccccc45)C(C)(C)N3C2=O)c1`, the concentration for half-maximal inhibition (IC50) is 8.69 µM, the concentration for an effect of 90% (IC90) was 14.3 µM and the 50% cytotoxic concentration (CC50) was above 40 µM.
On to `CCCCc1ccc(NC(=O)C2CCCO2)cc1` (stereo not given), for which the IC50 is 1.71 µM and the IC90 was above 100 µM.
The like results for `CC(=O)c1ccc(NC(=O)c2cc(CC(C)C)on2)cc1` were, in that order, 7.21 µM and 42.9 µM.
On to `Nc1ncnc(Oc2cccc3cccnc23)c1[N+](=O)[O-]`, for which the 50% inhibitory concentration (IC50) is 6.19 µM, the IC90 was 6.94 µM and the CC50 came to 37.1 µM.
`O=C(Cn1nc(CNc2ccc(Cl)cc2)[n+]2c1CCCCC2)c1ccc(Br)cc1`: the IC50 was 4.63 µM and the concentration for an effect of 90% (IC90) came to 7.74 µM.
The compound `O=C(CCC(=O)Nc1ccc(Oc2ccccc2)cc1)NCCO` displayed an IC90 above 100 µM.
In the case of `O=C(CCl)NC1CCCc2ccccc21` (stereo not given), the 50% inhibitory concentration (IC50) is 20.6 µM, the IC90 is above 100 µM and the CC50 was found to be 32.5 µM.
Turning to `Nc1ccc(-n2ccnc2)cc1`, the IC50 was 41 µM and the 90% effect concentration (IC90) was above 100 µM.
For `Cc1ccc(NC(NC(=O)c2cccs2)C(Cl)(Cl)Cl)cc1C` (stereo not given), the IC50 is 24.3 µM, the concentration for an effect of 90% (IC90) is above 100 µM and the CC50 is above 40 µM.
For the compound `Cc1ccc(NCCC(=O)c2cccs2)cc1Cl`, the half-inhibitory concentration (IC50) was 34.6 µM and the IC90 was above 100 µM.
The like results for `CSc1nc(N(C)C)c2ccccc2n1` were, in that order, 42.9 µM and above 100 µM.
Regarding `O=C(Nc1nnc(-c2ccccc2)o1)c1nc2ccccc2s1`, the IC50 was 6.13 µM, the 90% effect concentration (IC90) stood at 13.6 µM and the half-maximal cytotoxic concentration (CC50) is above 40 µM.
The like results for `COc1cc(OC)cc(C(=O)Nc2nc(-c3ccccc3)c(-c3ccccc3)o2)c1` were, in that order, 0.322 µM, 4.94 µM and 30.9 µM.
The like results for `CCCCCc1cc(=O)oc2c(C(CCN3CCCC(C)C3)c3ccc(OC)cc3)c(OC)cc(OC)c12` (stereo not given) were, in that order, 2.18 µM, 3.26 µM and 17.1 µM.

Values taken from PubChem BioAssay AID1626 (SRMLSC, 2009).
